Measurements: patent publication US12527774B2, “Estrogen-related receptor alpha modulators” (LEAD PHARMA HOLDING B.V., priority 2019, dated 2026)

Assays:
full length ERRα = full length ERRα (Homo sapiens (Human), UniProt P11474); assay: Full Length ERRα Reporter Gene Assay; assay type: cell-based; settings: SK-BR-3 cells, ERRα-RE luciferase reporter, overnight incubation; read-out: mean pIC50 (converted)
From the text: Full Length ERRα Reporter Gene Assay
A method was established to quantitatively screen the potency of compounds with inverse agonistic activity on the nuclear receptor ERRα of the human species. The assay allows intra-cellular screening of ERRα inverse agonists in SK-BR-3 cells using an over-expression construct coding full length ERRα and a reporter construct containing an ERRα Response Element (RE) and a luciferase gene for read out. The activity is expressed in log IC50 values and can be used to determine SAR of compound families or to de-select compounds.
In this assay, reporter cells are obtained by transient co-transfection of two constructs in SK-BR-3 cells using standard transfection techniques. The first construct contains a response element of the nuclear receptor ERRα (Plasmid pLP2175, Reporter construct ERRα-RE/luc2P, cloned variant of ERRα_v2_synthRE, Switchgear Genomics, Catalog Number S900089). This sequence drives the transcription of the luciferase reporter gene in response to binding of an ERRα protein encoded by the second construct (Plasmid pLP2124: full length ERRα expression construct using pcDNA3.1/Hygro(+) as background, Invitrogen Catalog Number V87020).
The day after transfection, cells were plated into 96 well plates, test compound was added and the plates were incubated overnight. Subsequently, the firefly luciferase activity was quantified using luciferase detection reagent and luminescence readout.
Detailed Assay Description
Transfection is performed on pre-seeded SK-BR-3 cells in a T175 flask. One transfected T175 flask is sufficient for seeding 3 to 4 MW96 plates the next day, depending on the confluency of the transfected cells.
Two different media are used in this protocol for cell treatment: 1) Culture medium, i.e. McCoy's 5a with phenol red (BioWhittaker Supplier Number 12-688F), 10% FBS and 1× Penstrep.; and, 2) Assay medium, i.e. McCoy's 5a Medium phenol red free (HyClone Product Code SH30270.01) with 2% Charcoal Stripped FBS and 1× Penstrep. Compound dilutions are prepared in assay medium.
Cells are seeded at least 2 days in advance to allow the cells to adhere well to flask before transfection. Cells should be 50-80% confluent at the day of transfection.
SKBR3 cells were transfected with the transcriptional reporter construct pLP2175 and the ERRα expression construct pLP2124 (as described above).
68 μL of Lipofectamine LTX transfection reagent (Invitrogen Catalog Number 15338-100) was added dropwise to 8.9 ml Opti-MEM I Reduced Serum Medium (Gibco Catalog Number 51985-026) and incubated at room temperature for 5 to 20 minutes. 8.9 ml of this reagent mixture was added to 22 μg pLP2175+22 μg pLP2124 (ratio 1:1 and total volume 10 ml), and incubated at room temperature for 25 minutes.
10 minutes before adding the transfection mix to SKBR3 cells in a T175 flask, the culture medium was refreshed with 20 mL culture medium. Subsequently, the 10 mL DNA-Opti-MEM-Lipofectamine mixture was gently added to the cells, followed by overnight (16-24 hours) incubation at 37° C. and 5% CO2.
To harvest SKBR3 cells from a T175 flask, first the medium was removed. Subsequently, cells were washed with Phosphate Buffered Saline (PBS) (Lonza), after which the PBS was removed. To dissociate the cells, 2 ml of TrypLE Express (Invitrogen) was added to the flask, followed by incubation at 37° C. for 5 minutes. The flask was tapped until cells were detached from the bottom. Cells were collected in 8 mL of culture medium (McCoy's 5α, 10% FBS, penstrep), to achieve a single cell suspension. After cell count, cells were spun down for 5 minutes at 300 g. Next cell pellets were re-suspended to 25000 cells/80 μl assay medium (McCoy's 5a phenol red free, 2% charcoal stripped FBS, penstrep).
For compound screening, the cells were harvested (as described above). 80 μL of cell suspension (25,000 cells) was plated per well into a white, flat bottom, tissue culture treated, 96 well screening plates (Greiner). […]

[1] = biological target: ERRα ligand binding domain (ERRα-LBD) (Homo sapiens (Human), UniProt P11474); assay: ERRα AlphaScreen Assay; assay type: biochemical; settings: disruption of binding of ERRα-LBD protein to biotin-PGC1α-3 co-activator peptide; for IC50: read-out: mean pIC50 (converted)
Chain of ERRα ligand binding domain (ERRα-LBD) (P11474 193-421): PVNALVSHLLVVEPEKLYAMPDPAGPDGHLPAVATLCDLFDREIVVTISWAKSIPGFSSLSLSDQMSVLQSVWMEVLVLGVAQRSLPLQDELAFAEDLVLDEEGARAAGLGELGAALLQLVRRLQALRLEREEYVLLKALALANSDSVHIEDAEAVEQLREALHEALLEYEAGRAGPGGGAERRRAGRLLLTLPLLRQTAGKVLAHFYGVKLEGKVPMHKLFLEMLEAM
How it was run: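 Disruption of co-activator binding read by AlphaScreen: compounds in triplicate, 1% DMSO, Tris pH 7.5 buffer, room temperature. Bacterially expressed 6His-SUMO-ERRα-LBD at 0.81 nM with beads for 1 h, then 15 nM biotinylated PGC1α peptide for 2 h. IC50 from four-parameter fits, averaged as pIC50.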

Chain of full length ERRα (P11474 whole entry): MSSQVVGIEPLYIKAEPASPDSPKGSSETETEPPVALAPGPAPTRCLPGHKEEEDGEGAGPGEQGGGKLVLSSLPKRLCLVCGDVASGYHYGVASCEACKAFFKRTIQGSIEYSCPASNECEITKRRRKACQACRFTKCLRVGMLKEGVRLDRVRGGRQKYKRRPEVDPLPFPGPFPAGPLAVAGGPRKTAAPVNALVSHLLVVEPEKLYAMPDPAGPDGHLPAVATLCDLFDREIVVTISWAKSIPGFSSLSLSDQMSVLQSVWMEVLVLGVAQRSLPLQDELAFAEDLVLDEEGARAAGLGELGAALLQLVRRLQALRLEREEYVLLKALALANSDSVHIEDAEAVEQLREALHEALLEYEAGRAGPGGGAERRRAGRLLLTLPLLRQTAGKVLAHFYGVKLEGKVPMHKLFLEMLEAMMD

Structure (SMILES)	IC50 (full length ERRα) [nM]	mean pIC50 [1]	IC50 [1] [nM]
COc1cc(C2CC(=O)Nc3n[nH]cc32)ccc1OCc1cccc(OC)c1C(F)(F)F (centres unmarked) [Example 36, 4-(3-methoxy-4-{[3-methoxy-2-(trifluoromethyl)phenyl]methoxy}phenyl)-2H,4H,5H,6H,7H-pyrazolo[3,4-b]pyridin-6-one]	≤ 316	≥ 8	–
C=CCc1ccc(COc2ccc(C3CC(=O)Nc4n[nH]cc43)cc2OC)c(C(F)(F)F)c1 (centres unmarked) [Example 142, 4-(3-methoxy-4-{[4-(prop-2-en-1-yl)-2-(trifluoromethyl)phenyl]methoxy}phenyl)-2H,4H,5H,6H,7H-pyrazolo[3,4-b]pyridin-6-one]	≤ 316	≥ 8	–
COc1cc(-c2cc(=O)[nH]c3n[nH]cc23)ccc1OCc1ccc(F)cc1C(F)(F)F [Example 179, 4-(4-{[4-fluoro-2-(trifluoromethyl)phenyl]methoxy}-3-methoxyphenyl)-2H,6H, 7H-pyrazolo[3,4-b]pyridin-6-one]	≤ 316	≥ 8	–
COc1cc(C2CC(=O)Nc3n[nH]cc32)ccc1OCc1ccc(CC#N)cc1C(F)(F)F (centres unmarked) [Example 147, 2-[4-(2-methoxy-4-{6-oxo-2H,4H,5H,6H, 7H-pyrazolo[3,4-b]pyridin-4-yl}phenoxymethyl)-3-(trifluoromethyl)phenyl]acetonitrile]	≤ 316	–	100 to 1000
COc1cc(C2CC(=O)Nc3n[nH]cc32)ccc1OCc1ccc(CCCO)cc1C(F)(F)F (centres unmarked) [Example 149, 4-(4-{[4-(3-hydroxypropyl)-2-(trifluoromethyl)phenyl]methoxy}-3-methoxyphenyl)-2H,4H,5H,6H, 7H-pyrazolo[3,4-b]pyridin-6-one]	≤ 316	≥ 8	–
COc1cc(C2CC(=O)Nc3n[nH]cc32)ccc1COc1ccc(C#CCO)cc1C(F)(F)F (centres unmarked) [Example 119, 4-(4-{[4-(3-hydroxyprop-1-yn-1-yl)-2-(trifluoromethyl)phenoxy]methyl}-3-methoxyphenyl)-2H,4H,5H,6H,7H-pyrazolo[3,4-b]pyridin-6-one]	≤ 316	≥ 8	–
COc1cc(C2CC(=O)Nc3n[nH]nc32)ccc1OCc1ccc(CCO)cc1C(F)(F)F (centres unmarked) [Example 157, 7-(4-{[4-(2-hydroxyethyl)-2-(trifluoromethyl)phenyl]methoxy}-3-methoxyphenyl)-2H,4H,5H,6H, 7H-[1,2,3]triazolo[4,5-b]pyridin-5-one]	≤ 316	≥ 8	–
CCc1ccc(COc2ccc(-c3cc(=O)[nH]c4n[nH]cc34)cc2OC)c(C(F)(F)F)c1 [Example 175, 4-(4-{[4-ethyl-2-(trifluoromethyl)phenyl]methoxy}-3-methoxyphenyl)-2H,6H, 7H-pyrazolo[3,4-b]pyridin-6-one]	≤ 316	≥ 8	–
COc1cc(C2CC(=O)Nc3n[nH]cc32)ccc1OCc1ccccc1C(C)(C)C (centres unmarked) [Example 40, 4-{4-[(2-tert-butylphenyl)methoxy]-3-methoxyphenyl}-2H,4H,5H,6H,7H-pyrazolo[3,4-b]pyridin-6-one]	≤ 316	≥ 8	–
COc1cc(C2CC(=O)Nc3n[nH]cc32)ccc1COc1ccc(C(F)F)cc1C(F)(F)F (centres unmarked) [Example 115, 4-(4-{[4-(difluoromethyl)-2-(trifluoromethyl)phenoxy]methyl}-3-methoxyphenyl)-2H,4H,5H,6H,7H-pyrazolo[3,4-b]pyridin-6-one]	≤ 316	≥ 8	–
COc1cc(-c2cc(=O)[nH]c3n[nH]cc23)ccc1OCc1ccccc1C(F)(F)F [Example 169, 4-(3-methoxy-4-{[2-(trifluoromethyl)phenyl]methoxy}phenyl)-2H,6H,7H-pyrazolo[3,4-b]pyridin-6-one]	≤ 316	≥ 8	–
COc1cc(C2CC(=O)Nc3n[nH]cc32)ccc1OCc1ccccc1OC(F)(F)F (centres unmarked) [Example 24, 4-(3-methoxy-4-{[2-(trifluoromethoxy)phenyl]methoxy}phenyl)-2H,4H,5H,6H,7H-pyrazolo[3,4-b]pyridin-6-one]	≤ 316	≥ 8	–
COc1cc(C2CC(=O)Nc3n[nH]cc32)ccc1OCc1ccc(C=O)cc1C(F)(F)F (centres unmarked) [Example 159, 4-[(2-methoxy-4-{6-oxo-2H,4H,5H,6H,7H-pyrazolo[3,4-b]pyridin-4-yl}phenoxy)methyl]-3-(trifluoromethyl)benzaldehyde]	≤ 316	–	10 to 100
COc1cc(C2CC(=O)Nc3n[nH]cc32)ccc1COc1ccc(C)cc1C(F)(F)F (single isomer, unassigned; (-)) [Example 214, (−)-4-(3-methoxy-4-{[4-methyl-2-(trifluoromethyl)phenoxy]methyl}phenyl)-2H,4H,5H,6H,7H-pyrazolo[3,4-b]pyridin-6-one]	≤ 316	≥ 8	–
COc1cc(C2CC(=O)Nc3n[nH]cc32)ccc1OCc1ccc(C2CC2)cc1C(F)(F)F (centres unmarked) [Example 145, 4-(4-{[4-cyclopropyl-2-(trifluoromethyl)phenyl]methoxy}-3-methoxyphenyl)-2H,4H,5H,6H, 7H-pyrazolo[3,4-b]pyridin-6-one]	≤ 316	≥ 8	–
O=C1CC(c2ccc(COc3ccc(Br)cc3C(F)(F)F)c(OC(F)(F)F)c2)c2c[nH]nc2N1 (centres unmarked) [Example 106, 4-(4-{[4-bromo-2-(trifluoromethyl)phenoxy]methyl}-3-(trifluoromethoxy)phenyl)-2H,4H,5H,6H,7H-pyrazolo[3,4-b]pyridin-6-one]	≤ 316	–	10 to 100
